Consider one compound from US20250257086A1, “EGFR DEGRADATION AGENT” (Beijing Tide Pharmaceutical Co., Ltd., priority 2022, published 2025).

Holding throughout (format): cell-based
Test [1] concerns the target Ba/F3 (EGFR^L858R/T790M/C797S) cells (Homo sapiens, UniProt P00533, T790M/C797S/L858R, cells depend on it). As to the kind of experiment: Antiproliferative activity on Ba/F3 (EGFR L858R/T790M/C797S) cells (CTG). The settings on record: 72h incubation, CTG luminescence, read-out: IC50 (nM), antiproliferative activity. The procedure, abridged:
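Luminescent CellTiter-Glo read-out on Ba/F3 cells carrying EGFR L858R/T790M/C797S. Inhibition normalised between untreated vehicle and a 10 μM positive drug. IC50 taken from a variable-slope four-parameter fit of inhibition against log compound concentration.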

The subject of test [2] is H1975 (EGFR^L858R/T790M) cells. The experiment in a line: Antiproliferative activity on H1975 (EGFR L858R/T790M) cells (CTG). The settings on record: Homo sapiens, NCI-H1975; H1975 (EGFR^L858R/T790M) cells, 72h incubation, CTG luminescence; read-out: IC50 (nM), antiproliferative activity. The method, then:
30 nL of the compound dilution was added to a 384-well plate by Echo (Labcyte, Echo550).
The percent inhibition rate (% inhibition) was calculated by the following formula
[formula] • LUMcmpd: Luminescence value of assay compound. • LUMpositive: Average LUM value of positive drug with a concentration of 10 μM. • LUMvehicle: Average LUM value of negative control group without drug treatment.
The nonlinear regression curve (dose response-variable slope) between the value of inhibition rate (%) and the logarithm of compound concentration was fitted with graphpad prism 8.0, the effect dose curve of compound was drawn, and the IC50 value was calculated.
Y=Bottom+(Top−Bottom)/(1+10^((Log IC50−X)*HillSlope)) • X-axis: logarithm of compound concentration; Y axis: inhibition rate (inhibition).

Test [3] concerns the target T1, EGFR^Del19/T790M/C797S protein (Homo sapiens, UniProt P00533, C797S/DEL746-750/T790M).
T1 construct: expressed in transfected cells; host or cells: Ba/F3 (EGFR^Del19/T790M/C797S) cells
As to the kind of experiment: Induction of EGFR Del19/T790M/C797S protein degradation in Ba/F3 cells (Alpha counts). As to conditions: 24h treatment. The procedure:
Ba/F3 (EGFR^L858R/T790M/C797S) and Ba/F3 (EGFR^Del19/T790M/C797S) cells were cultured according to the culture conditions recommended by ATCC, and analyzed by index.
Culture conditions: incubated at 37° C., 95% air, 5% CO2 incubator.
(2) Compound Stock Solution: 10 mM Stock Solution in DMSO, Stored at −20° C.
The cells in the cell culture bottle were collected, and the cells with viability of >90% can be used in the assay. Cells were seeded in a 96-well plate with 40 μL cells, 1*10^5 cells/well.
The compounds were serially diluted 3× with DMSO, with the starting concentrations of the compounds being 1.0 mM (EGFR^L858R/T790M/C797S assay) and 10 mM (EGFR^Del19/T790M/C797S assay), respectively, into 10 concentrations to prepare working solutions.
(5) Compound was Pipetted into the 96-Well Plate to Treat Cells in a 37° C., 95% Air, 5% CO2 Incubator for 24h.
• 1) 1 μg/mL EGF stimulated cells for 10 min; • 2) After the compound treatment was completed, lysis buffer was added to lyse cells; 10 μL of cell lysate was transferred to the 384-well plate; in addition, control lysate, negative control and 5 μL of acceptor mix were added to the 384-well plate; The plate was shaken on a shaker for 1-2 min; • 3) 5 μL of donor mix was added to each well; the 384-well plate was sealed, shaken on a shaker for 1-2 min, and left in the dark at room temperature overnight; then the plate was read with ELISA reader.
Alpha counts were fitted by logarithmic treatment of compound concentration with Graphpad Prism 8.0.
[formula] • X: logarithm of compound concentration; Y: Alpha Counts.

T1 sequence (P00533 with tags, fused parts or gaps DEL746-750/T790M/C797S): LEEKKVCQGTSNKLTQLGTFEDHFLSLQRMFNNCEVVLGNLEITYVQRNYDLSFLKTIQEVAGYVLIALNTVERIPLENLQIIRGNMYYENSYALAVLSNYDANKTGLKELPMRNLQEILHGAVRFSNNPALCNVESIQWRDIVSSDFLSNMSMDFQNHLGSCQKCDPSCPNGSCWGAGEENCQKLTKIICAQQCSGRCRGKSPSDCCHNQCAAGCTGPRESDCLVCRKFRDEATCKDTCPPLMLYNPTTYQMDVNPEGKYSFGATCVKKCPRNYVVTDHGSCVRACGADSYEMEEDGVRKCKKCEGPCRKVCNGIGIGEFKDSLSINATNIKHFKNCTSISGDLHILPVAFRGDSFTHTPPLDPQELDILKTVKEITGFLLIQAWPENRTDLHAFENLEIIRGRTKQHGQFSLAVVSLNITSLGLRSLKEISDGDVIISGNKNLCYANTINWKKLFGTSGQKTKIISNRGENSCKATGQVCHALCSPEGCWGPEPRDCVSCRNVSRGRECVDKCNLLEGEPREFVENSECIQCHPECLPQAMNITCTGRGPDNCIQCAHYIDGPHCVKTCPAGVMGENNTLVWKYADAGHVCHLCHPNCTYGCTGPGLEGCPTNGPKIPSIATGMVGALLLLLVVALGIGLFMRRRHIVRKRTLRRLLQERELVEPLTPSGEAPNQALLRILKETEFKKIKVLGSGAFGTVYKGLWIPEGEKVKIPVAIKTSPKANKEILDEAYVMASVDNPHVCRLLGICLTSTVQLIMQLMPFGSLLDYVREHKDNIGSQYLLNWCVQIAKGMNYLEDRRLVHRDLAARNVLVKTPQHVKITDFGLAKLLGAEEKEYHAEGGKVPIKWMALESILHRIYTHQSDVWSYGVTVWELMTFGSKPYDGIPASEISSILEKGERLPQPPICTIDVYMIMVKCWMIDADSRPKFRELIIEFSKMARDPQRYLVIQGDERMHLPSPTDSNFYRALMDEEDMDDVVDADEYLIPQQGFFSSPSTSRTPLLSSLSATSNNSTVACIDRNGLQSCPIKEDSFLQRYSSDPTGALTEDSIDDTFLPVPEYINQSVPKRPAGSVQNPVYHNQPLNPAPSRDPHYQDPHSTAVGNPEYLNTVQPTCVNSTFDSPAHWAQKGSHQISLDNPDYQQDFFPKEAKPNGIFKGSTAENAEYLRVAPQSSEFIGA
Chain of Ba/F3 (EGFR^L858R/T790M/C797S) cells (P00533 whole entry T790M/C797S/L858R): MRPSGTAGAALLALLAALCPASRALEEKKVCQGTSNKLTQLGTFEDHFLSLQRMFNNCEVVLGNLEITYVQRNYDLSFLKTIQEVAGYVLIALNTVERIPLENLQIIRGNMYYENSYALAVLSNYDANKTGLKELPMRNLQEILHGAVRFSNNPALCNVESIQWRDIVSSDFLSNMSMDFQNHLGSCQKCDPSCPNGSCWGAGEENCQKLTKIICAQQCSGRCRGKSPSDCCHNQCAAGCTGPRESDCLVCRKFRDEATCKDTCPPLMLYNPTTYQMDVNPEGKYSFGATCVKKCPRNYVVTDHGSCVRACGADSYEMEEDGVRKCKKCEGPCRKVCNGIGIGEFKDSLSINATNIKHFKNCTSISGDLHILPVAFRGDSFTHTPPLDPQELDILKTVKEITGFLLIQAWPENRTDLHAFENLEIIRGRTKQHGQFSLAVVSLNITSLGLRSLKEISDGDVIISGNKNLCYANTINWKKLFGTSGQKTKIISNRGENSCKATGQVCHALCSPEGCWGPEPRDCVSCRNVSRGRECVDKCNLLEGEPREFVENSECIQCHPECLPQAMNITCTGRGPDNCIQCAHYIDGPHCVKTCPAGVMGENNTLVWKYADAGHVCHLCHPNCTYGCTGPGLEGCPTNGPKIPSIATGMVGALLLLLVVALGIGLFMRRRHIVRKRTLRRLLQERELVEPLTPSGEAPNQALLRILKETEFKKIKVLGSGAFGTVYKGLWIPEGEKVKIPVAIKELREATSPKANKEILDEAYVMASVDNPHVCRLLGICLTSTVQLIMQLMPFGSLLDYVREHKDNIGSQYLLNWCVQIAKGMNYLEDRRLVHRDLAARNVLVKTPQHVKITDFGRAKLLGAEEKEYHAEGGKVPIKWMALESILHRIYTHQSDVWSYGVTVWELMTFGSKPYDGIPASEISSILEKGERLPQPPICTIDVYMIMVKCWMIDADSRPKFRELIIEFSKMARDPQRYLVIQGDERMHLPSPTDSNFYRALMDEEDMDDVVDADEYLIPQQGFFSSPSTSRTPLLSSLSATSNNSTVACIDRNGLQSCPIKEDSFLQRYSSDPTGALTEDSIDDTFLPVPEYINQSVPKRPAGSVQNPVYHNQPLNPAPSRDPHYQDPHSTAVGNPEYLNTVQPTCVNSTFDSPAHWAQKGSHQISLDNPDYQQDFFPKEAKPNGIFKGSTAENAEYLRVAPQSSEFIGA

For `CC#CC(=O)Nc1cc(Nc2ncc(Cl)c(Nc3ccccc3P(C)(C)=O)n2)c(OC)cc1N1CCC(N2CCN(CCCC#Cc3cccc4c3CN(C3CCC(=O)NC3=O)C4=O)CC2)CC1` (stereo not shown) [Compound D058, N-(5-((5-chloro-4-((2-(dimethylphosphoryl)phenyl)amino)pyrimidin-2-yl)amino)-2-(4-(4-(5-(2-(2,6-dioxopiperidin-3-yl)-1-oxoisoindolin-4-yl)pent-4-yn-1-yl)piperazin-1-yl)piperidin-1-yl)-4-methoxyphenyl)but-2-ynamide], the GI50 in test [1] came to 35.6 nM. For the same compound, in test [2], the IC50 amounted to 14.6 nM. Besides, the “degradation effect on EGFR^Del19/T790M/C797S protein (in words)” value in test [3] (FIG. 3) is “significant degradation effects”. The DC50 in test [3] (range 1 nM to 10000 nM, FIG. 3, read-out: DC50, reduction of EGFR^Del19/T790M/C797S protein level) worked out at 25.1 nM.
